Assay results published in patent US9255090B2, “Heterocyclyl derivatives and their use as prostaglandin D2 receptor modulators” (Actelion Pharmaceuticals Ltd., priority 2012, dated 2016).

Target: hCRTH2 receptor (Homo sapiens (Human), UniProt Q9Y5Y4)
Test: hCRTH2 receptor membranes radioligand (3H-PGD2) displacement assay
Assay type: binding
Details: 3H-PGD2 radioligand displacement, HEK293-hCRTH2 membranes
Procedure: Biological Assays: Preparation of hCRTH2 Receptor Membranes and Radioligand Displacement Assay:
First, recombinant HEK293-hCRTH2 cells were detached from culture plates into 5 ml buffer A/plate (Buffer A: 5 mM Tris, 1 mM MgCl2-6H2O pH=7.4) using a rubber policeman. Cells were then transferred into centrifugation tubes and centrifuged for 5 min at 400 g. The cell pellet was resuspended in the same buffer and tubes were frozen at −80° C. Cells were thawed and membrane fragments were generated by homogenization using a polytron homogenizer (30 seconds). The membrane fragments were then centrifuged at 3000 g for 20 minutes and resuspended in buffer C (Buffer C: 75 mM Tris, 25 mM MgCl2, 250 mM Saccharose pH 7.4). Aliquots of membrane fragments were stored at −20° C.
Binding assay was performed in a final assay volume of 250 μl. First, 25 μl of test compound, previously diluted in Binding-Buffer (Binding-Buffer: 50 mM Tris-Base, 100 mM NaCl, 1 mM EDTA, 0.1% BSA (protease free), 0.01% NaN3, 10 mM MnCl2, pH 7.0) was placed into each well. After addition of 75 μl Binding-Buffer, 50 μl of the radioligand ^3H-PGD2 (at 2.5 nM (220.000 dpm/well) from ANAWA ART0662) was added to each well. Binding assay was started by addition of 100 μl CRTH2 membrane fragments, reaching a final concentration of 20 μg/well. For non-specific binding, PGD2 was added to the reaction mixture to […] final concentration. This assay mix was incubated for 90 minutes at room temperature and then filtered through a GF/C filter 96-well plate which was pre-soaked for 3 hours in 0.5% polyethyleneimine (PEI). The filter-wells were washed three times with ice cold Binding-Buffer. Then, 40 μl of Microscint-40 (Packard) was added to each well and the retained radioactivity quantified in a Topcount (Packard).

hCRTH2 receptor, sequence (Q9Y5Y4 whole entry): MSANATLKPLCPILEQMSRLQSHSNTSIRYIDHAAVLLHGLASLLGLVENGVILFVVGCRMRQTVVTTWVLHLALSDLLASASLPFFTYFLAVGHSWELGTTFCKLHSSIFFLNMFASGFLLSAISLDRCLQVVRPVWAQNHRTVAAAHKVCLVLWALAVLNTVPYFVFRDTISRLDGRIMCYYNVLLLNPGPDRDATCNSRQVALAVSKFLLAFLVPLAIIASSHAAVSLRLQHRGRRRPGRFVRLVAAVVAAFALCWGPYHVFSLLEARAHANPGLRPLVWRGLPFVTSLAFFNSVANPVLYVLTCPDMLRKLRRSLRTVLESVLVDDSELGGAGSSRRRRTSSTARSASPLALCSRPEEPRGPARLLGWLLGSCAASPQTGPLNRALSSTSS

| Structure (SMILES) | IC50 [nM] |
| --- | --- |
| COc1ccc(CC(=O)O)cc1-c1ccc(F)c2c1CN(C(=O)[C@@H]1C[C@H]1c1ccc(Cl)cc1)CC2 (racemic) [Example 2, (±)-(3-{2-[trans-2-(4-Chloro-phenyl)-cyclopropanecarbonyl]-5-fluoro-1,2,3,4-tetrahydro-isoquinolin-8-yl}-4-methoxy-phenyl)-acetic acid] | 1.93 |
| COc1ccc(CC(=O)O)cc1-c1ccc(F)c2c1CN(C(=O)[C@@H]1C[C@H]1c1cccc(Cl)c1)CC2 (racemic) [Example 4, (±)-(3-{2-[trans-2-(3-Chloro-phenyl)-cyclopropanecarbonyl]-5-fluoro-1,2,3,4-tetrahydro-isoquinolin-8-yl}-4-methoxy-phenyl)-acetic acid] | 5.39 |
| COc1ccc(CC(=O)O)cc1-c1ccc(F)c2c1CN(C(=O)CC(c1ccccc1)c1ccc(Cl)cc1)CC2 (racemic) [Example 97, (±)-(3-{2-[3-(4-Chloro-phenyl)-3-phenyl-propionyl]-5-fluoro-1,2,3,4-tetrahydro-isoquinolin-8-yl}-4-methoxy-phenyl)-acetic acid] | 48.1 |
| COc1ccc(CC(=O)O)cc1-c1ccc(F)c2c1CN(C(=O)[C@@H]1C[C@H]1c1ccc(Cl)cc1Cl)CC2 (racemic) [Example 98, (±)-(3-{2-[trans-2-(2,4-Dichloro-phenyl)-cyclopropanecarbonyl]-5-fluoro-1,2,3,4-tetrahydro-isoquinolin-8-yl}-4-methoxy-phenyl)-acetic acid] | 10.1 |
| COc1ccc(CC(=O)O)cc1-c1ccc(F)c2c1CN(C(=O)C(C)Cc1ccccc1)CC2 (racemic) [Example 109, (±)-{3-[5-Fluoro-2-(2-methyl-3-phenyl-propionyl)-1,2,3,4-tetrahydro-isoquinolin-8-yl]-4-methoxy-phenyl}-acetic acid] | 28.9 |
| COc1ccc(C(C)C(=O)O)cc1-c1ccc(F)c2c1CN(C(=O)[C@@H]1C[C@H]1c1ccccc1)CC2 (mixture of isomers) [Example 120, (±)-2-{3-[5-Fluoro-2-((1R,2R)-2-phenyl-cyclopropanecarbonyl)-1,2,3,4-tetrahydro-isoquinolin-8-yl]-4-methoxy-phenyl}-propionic acid] | 8.56 |

Second part, the compound after the results:

| IC50 [nM] | Structure (SMILES) |
| --- | --- |
| 2.11 | COc1ccc(CC(=O)O)cc1-c1ccc(F)c2c1CN(C(=O)[C@@H]1C[C@H]1c1ccccc1Cl)CC2 (racemic) [Example 3, (±)-(3-{2-[trans-2-(2-Chloro-phenyl)-cyclopropanecarbonyl]-5-fluoro-1,2,3,4-tetrahydro-isoquinolin-8-yl}-4-methoxy-phenyl)-acetic acid] |
| 4.22 | COc1ccc(CC(=O)O)cc1-c1ccc(F)c2c1CN(C(=O)[C@@H]1C[C@H]1c1ccccc1C)CC2 (racemic) [Example 6, (±)-{3-[5-Fluoro-2-(trans-2-o-tolyl-cyclopropanecarbonyl)-1,2,3,4-tetrahydro-isoquinolin-8-yl]-4-methoxy-phenyl}-acetic acid] |
| 202 | COc1ccc(CC(=O)O)cc1-c1ccc(F)c2c1CN(C(=O)C1CCc3ccccc31)CC2 (racemic) [Example 112, (±)-{3-[5-Fluoro-2-(indane-1-carbonyl)-1,2,3,4-tetrahydro-isoquinolin-8-yl]-4-methoxy-phenyl}-acetic acid] |
| 18.6 | COc1ccc(CC(=O)O)cc1-c1ccc(F)c2c1CN(C(=O)C1COc3ccccc3C1)CC2 (racemic) [Example 113, (±)-{3-[2-(Chroman-3-carbonyl)-5-fluoro-1,2,3,4-tetrahydro-isoquinolin-8-yl]-4-methoxy-phenyl}-acetic acid] |
| 173 | COc1ccc(CC(=O)O)cc1-c1ccc(F)c2c1CN(C(=O)C1CCc3ccccc3O1)CC2 (racemic) [Example 115, (±)-{3-[2-(Chroman-2-carbonyl)-5-fluoro-1,2,3,4-tetrahydro-isoquinolin-8-yl]-4-methoxy-phenyl}-acetic acid] |
| 862 | COc1ccc(CC(=O)O)cc1-c1ccc(F)c2c1CN(C(=O)C1CC(=O)c3ccccc31)CC2 (racemic) [Example 122, (±)-{3-[5-Fluoro-2-(3-oxo-indane-1-carbonyl)-1,2,3,4-tetrahydro-isoquinolin-8-yl]-4-methoxy-phenyl}-acetic acid] |
